# According to ChEMBL document CHEMBL1125047, “Novel glutamic acid derived cholecystokinin receptor ligands” (J Med Chem, 1990):
# Biological target: T1, Cholecystokinin receptor type A (Rattus norvegicus, UniProt P30551)
# T1 sequence (P30551 whole entry): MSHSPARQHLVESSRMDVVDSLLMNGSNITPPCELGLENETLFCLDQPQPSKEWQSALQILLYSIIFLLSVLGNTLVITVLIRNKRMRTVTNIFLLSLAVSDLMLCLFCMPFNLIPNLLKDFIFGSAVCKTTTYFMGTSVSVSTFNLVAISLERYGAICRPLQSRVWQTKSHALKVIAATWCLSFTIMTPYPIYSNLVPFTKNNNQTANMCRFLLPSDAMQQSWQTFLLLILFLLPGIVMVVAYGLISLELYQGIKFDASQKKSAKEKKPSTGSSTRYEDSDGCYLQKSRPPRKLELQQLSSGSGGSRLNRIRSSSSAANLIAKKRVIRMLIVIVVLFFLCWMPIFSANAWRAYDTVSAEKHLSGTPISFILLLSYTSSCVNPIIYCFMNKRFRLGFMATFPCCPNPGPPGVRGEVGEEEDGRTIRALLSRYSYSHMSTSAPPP
# Assay: Inhibition of binding of [125I]- CCK-33 to rat pancreas
row,Structure (SMILES),IC50
1,CCCCCN(CCCCC)C(=O)C(CCC(=O)OCc1ccccc1)NC(=O)Nc1ccc(Cl)cc1 (stereo not given),9300 nM
2,CCCCCN(CCCCC)C(=O)C(CCC(=O)OCC)NC(=O)Nc1ccc(Cl)cc1 (stereo not given),1200 nM
3,"O=C(O)CCC(NC(=O)c1cc2ccccc2[nH]1)C(=O)N(C1CCCCC1)C1CCCCC1 (single isomer, unassigned)",59 nM
4,"CCCCCN(CCCCC)C(=O)C(CCC(=O)O)NC(=O)Nc1cccc(OC)c1 (single isomer, unassigned; 13)",540 nM
5,"CCCCCN(CCCCC)C(=O)C(CCC(=O)O)NC(=O)Nc1cccc(OC)c1 (single isomer, unassigned; 14)",4.5 nM
6,CCCCCN(CCCCC)C(=O)C(CCC(=O)O)NC(=O)c1ccc(Cl)c(Cl)c1 (stereo not given) [LORGLUMIDE],18 nM
7,CCCN(CCC)C(=O)C(CCC(=O)O)NC(=O)c1ccccc1 (stereo not given) [PROGLUMIDE],250000 nM

# More lines, now with the values ahead:
row,IC50,Structure (SMILES)
1,680 nM,CCCCCN(CCCCC)C(=O)C(CCC(=O)N1CCCC1)NC(=O)Nc1ccc(Cl)cc1 (stereo not given)
2,170 nM,"CCCCCN(CCCCC)C(=O)C(CCC(=O)N1CCCC1)NC(=O)Nc1cccc(OC)c1 (single isomer, unassigned; 15)"
3,120 nM,"CCCCCN(CCCCC)C(=O)C(CCC(=O)N1CCCC1)NC(=O)Nc1cccc(OC)c1 (single isomer, unassigned; 16)"
